# In PubChem BioAssay AID1259407 (Chemical Carcinogenesis Research Information System (CCRIS), 2018):
# Activity calls are given as the source filed them. No rule for the calls is given here.
# Test system: CCRIS mutagenicity, Ames/micronucleus/aberration tests
# Test: CCRIS mutagenicity studies
# [1] = Test System: AMES SALMONELLA TYPHIMURIUM, Strain/Indicator: TA98, Metabolic Activation: NONE, Method: PREINCUBATION
smiles,measurement,setting,value
CCC(=O)OCc1ccc([N+](=O)[O-])cc1,mutagenic call,[1],inactive; negative
same,mutagenic call,"Test System: AMES SALMONELLA TYPHIMURIUM, Strain/Indicator: TA100(NR), Metabolic Activation: NONE, Method: PREINCUBATION",inactive; negative
same,mutagenic call,"Test System: AMES SALMONELLA TYPHIMURIUM, Strain/Indicator: TA100, Metabolic Activation: NONE, Method: PREINCUBATION",active; positive
same,mutagenic call,"Test System: AMES SALMONELLA TYPHIMURIUM, Strain/Indicator: TA100, Metabolic Activation: RAT, LIVER, S-9, AROCLOR 1254, Method: PREINCUBATION",active; positive
c1cc[c]([Sb]([c]2ccccc2)[c]2ccccc2)cc1,mutagenic call,"Test System: AMES SALMONELLA TYPHIMURIUM, Strain/Indicator: TA1535, Metabolic Activation: RAT, LIVER, S-9, AROCLOR 1254, Method: STANDARD PLATE",active; positive
same,mutagenic call,"Test System: Mouse lymphoma, Strain/Indicator: L5178Y (tk+/tk-), Metabolic Activation: None, Method: Suspension/plate",inactive; negative
same,mutagenic call,"Test System: Mouse lymphoma, Strain/Indicator: L5178Y (tk+/tk-), Metabolic Activation: Rat, Liver, S-9, Aroclor 1254, Method: Suspension/plate",active; equivocal (previous evaluation positive)
COc1cc(N=Nc2ncc([N+](=O)[O-])s2)c(NC(C)=O)cc1N(CCOC(=O)OCC(C)C)CCOC(=O)OCC(C)C,mutagenic call,"End Point: IN VITRO CHROMOSOMAL ABERRATIONS, Test System: CHL CELLS, Metabolic Activation: RAT, LIVER, S-9, SODIUM PHENOBARBITAL AND 5,6-BENZOFLAVONE",active; positive (ploidy changes)
c1ccc2c(c1)ccc1c2ccc2ccc3ccccc3c21,mutagenic call,"Test System: AMES SALMONELLA TYPHIMURIUM, Strain/Indicator: TA100, Metabolic Activation: RAT, LIVER, MICROSOMES, AROCLOR 1254, Method: STANDARD PLATE",active; positive
same,mutagenic call,"Test System: AMES SALMONELLA TYPHIMURIUM, Strain/Indicator: TA100, Metabolic Activation: RAT, LIVER, MICROSOMES, BENZO[C]CHRYSENE, Method: STANDARD PLATE",inactive; negative
same,mutagenic call,"Test System: AMES SALMONELLA TYPHIMURIUM, Strain/Indicator: TA100, Metabolic Activation: RAT, LIVER, MICROSOMES, Method: STANDARD PLATE",inactive; negative
O=S(=O)(O)C1C(O)c2c(cc3ccc4cccc5ccc2c3c45)C(O)C1O (stereo unspecified),mutagenic call,[1],inactive; negative
OC1C2OC2=C2C=c3ccc4cccc5ccc(c3c54)C2C1O (stereo unspecified),mutagenic call,"Test System: CHINESE HAMSTER V-79, Strain/Indicator: V-79/8-AZAGUANINE, Metabolic Activation: NONE, Method: STANDARD PLATE",active; positive
CNC(=O)Oc1cccc2c1OC(C)(C)C2,mutagenic call,"End Point: CHROMOSOMAL ABERRATIONS, Test System: BONE MARROW, Species: MOUSE, Strain/Sex: SWISS/MALE, Route: GAVAGE",active; positive (structural changes)
same,mutagenic call,"End Point: IN VIVO MICRONUCLEUS, Test System: BONE MARROW POLYCHROMATIC ERYTHROCYTES, Species: MOUSE, Strain/Sex: KM/MALE, FEMALE, Route: IP INJECTION",inactive; negative
same,mutagenic call,"Test System: AMES SALMONELLA TYPHIMURIUM, Strain/Indicator: TA97A, Metabolic Activation: NONE, Method: STANDARD PLATE",inactive; negative
same,mutagenic call,"Test System: AMES SALMONELLA TYPHIMURIUM, Strain/Indicator: TA98, Metabolic Activation: NONE, Method: STANDARD PLATE",inactive; negative
same,mutagenic call,"Test System: AMES SALMONELLA TYPHIMURIUM, Strain/Indicator: TA100, Metabolic Activation: NONE, Method: STANDARD PLATE",inactive; negative
same,mutagenic call,"Test System: AMES SALMONELLA TYPHIMURIUM, Strain/Indicator: TA102, Metabolic Activation: NONE, Method: STANDARD PLATE",inactive; negative
same,mutagenic call,"Test System: AMES SALMONELLA TYPHIMURIUM, Strain/Indicator: TA104, Metabolic Activation: NONE, Method: STANDARD PLATE",inactive; negative
same,mutagenic call,"Test System: AMES SALMONELLA TYPHIMURIUM, Strain/Indicator: TA1535, Metabolic Activation: NONE, Method: STANDARD PLATE",inactive; negative
